ChEMBL document CHEMBL3739313, “4-Methylcoumarins with cytotoxic activity against T24 and RT4 human bladder cancer cell lines” (2015)
Activity calls are given as the source filed them. No cut-off for these calls is given here.

Tests used:
[1] = Cytotoxicity against human T24 cells assessed as reduction of cell viability at 10 uM after 48 hrs by MTT assay; format: functional, T-24
T-24 = assay: Induction of apoptosis in human T24 cells at 50 uM after 24 hrs using annexin V/propidium iodide staining by flow cytometry assay; format: functional
[2] = Cytotoxicity against human T24 cells assessed as reduction of cell count at 50 uM after 24 hrs; format: functional, T-24; parameters: scale not given: the % may be the effect or the level left
[3] = Cell cycle arrest in human T24 cells assessed as accumulation at sub-G1 phase at 50 to 100 uM after 24 hrs by flow cytometry assay; format: functional, cell-based; conditions: T-24
[4] = Cytotoxicity against human T24 cells assessed as reduction of cell viability at 50 uM after 48 hrs by MTT assay; format: functional, T-24
RT-4 = assay: Cytotoxicity against human RT4 cells assessed as reduction of cell viability at 5 to 100 uM after 24 hrs by MTT assay; format: functional, cell-based
[5] = Cytotoxicity against human T24 cells assessed as reduction of cell viability at 50 uM after 24 hrs by MTT assay; format: functional, T-24
[6] = Cytotoxicity against human T24 cells assessed as reduction of cell viability at 100 uM after 48 hrs by MTT assay; format: functional, T-24
[7] = Cytotoxicity against human T24 cells assessed as reduction of cell viability at 25 uM after 48 hrs by MTT assay; format: functional, T-24

Work on `Cc1cc(=O)oc2c(O)c(O)cc(C(=O)O)c12` yielded an Activity [1] of 21.37%, an Activity (T-24) of 22.57% and an Activity [2] of 44.52%. For the same compound, the Activity [3] was “Active”, the Activity [4] was 63.95% and the Activity (RT-4) was “inactive”. For the same compound, the Activity [5] was 24.14%, the Activity [6] was 65.64% and the Activity [7] was 62.26%.
